Experimental data taken from patent US10206937B2, “Boronic acid derivatives and therapeutic uses thereof” (Qpex Biopharma, Inc., priority 2014, dated 2019).

Tested on: strains of Enterobacteriaceae producing various carbapenemases (class A, D and B; 104 strains)
Assay: Antibiotics potentiation by Compound 27 (MIC; meropenem, doripenem, ertapenem, cefepime)
Format: cell-based
Settings: + 27 = with Compound 27 at fixed 4 μg/ml

## COc1ccc2c(c1C(=O)O)OB(O)C(Sc1nnc(N)s1)C2 (centres unmarked) [D + 27]
Strain CF1012 Citrobacter freundii (KPC-2)
  MIC: X (MIC of less than 1 μg/mL)
Strain CF1021 Citrobacter freundii (CMY-type; VIM-1)
  MIC: X (MIC of less than 1 μg/mL)
Strain CF1022 Citrobacter freundii (SHV-12(2be), TEM-OSBL(2b); IMP-8)
  MIC: X (MIC of less than 1 μg/mL)
Strain CF1023 Citrobacter freundii (SHV-12(2be), TEM-OSBL(2b); CTX-M-3; CMY-34; NDM-1)
  MIC: X (MIC of less than 1 μg/mL)
Strain CL1080 Enterobacter cloacae (IMP-1)
  MIC: X (MIC of less than 1 μg/mL)
Strain EA1019 Enterobacter aerogenes (SHV-5, VIM-1)
  MIC: X (MIC of less than 1 μg/mL)
Strain EC1007 Escherichia coli (KPC-3)
  MIC: X (MIC of less than 1 μg/mL)
Strain EC1061 Escherichia coli (NDM-1, CMY-6)
  MIC: X (MIC of less than 1 μg/mL)
Strain EC1062 Escherichia coli (OXA-48, CTX-M-15)
  MIC: X (MIC of less than 1 μg/mL)
Strain EC1064 Escherichia coli (NDM-1, CMY-6, CTX-M-15)
  MIC: Y (MIC of 1 μg/mL to 10 μg/mL)
Strain EC1065 Escherichia coli (IMP-1)
  MIC: X (MIC of less than 1 μg/mL)
Strain EC1068 Escherichia coli (VIM-1)
  MIC: X (MIC of less than 1 μg/mL)
Strain EC1069 Escherichia coli (CTX-M-27; NDM-1)
  MIC: X (MIC of less than 1 μg/mL)
Strain EC1070 Escherichia coli (TEM-OSBL(2b); CMY-42; NDM-5)
  MIC: X (MIC of less than 1 μg/mL)
Strain EC1072 Escherichia coli (CTX-M-3; NDM-1)
  MIC: X (MIC of less than 1 μg/mL)
Strain ECL1004 Enterobacter cloacae (NMC-A)
  MIC: X (MIC of less than 1 μg/mL)
Strain ECL1026 Enterobacter cloacae (KPC-2, TEM-1)
  MIC: X (MIC of less than 1 μg/mL)
Strain ECL1036 Enterobacter cloacae (KPC-3, TEM-1)
  MIC: X (MIC of less than 1 μg/mL)
Strain ECL1045 Enterobacter cloacae (VIM-1)
  MIC: Y (MIC of 1 μg/mL to 10 μg/mL)
Strain ECL1055 Enterobacter cloacae (KPC-3, TEM)
  MIC: X (MIC of less than 1 μg/mL)
Strain ECL1057 Enterobacter cloacae (NDM-1, TEM-1, CTX-M-15)
  MIC: Z (MIC of greater than 10 μg/mL)
Strain ECL1058 Enterobacter cloacae (KPC-3, SHV-11, TEM-1)
  MIC: X (MIC of less than 1 μg/mL)
Strain ECL1059 Enterobacter cloacae (KPC-3, SHV-12, TEM-1)
  MIC: X (MIC of less than 1 μg/mL)
Strain ECL1061 Enterobacter cloacae (KPC-3, Hyper AmpC expression)
  MIC: X (MIC of less than 1 μg/mL)
Strain ECL1082 Enterobacter cloacae (VIM-1)
  MIC: X (MIC of less than 1 μg/mL)
Strain ECL1084 Enterobacter cloacae (CTX-M-15; ACT-16; NDM-1)
  MIC: X (MIC of less than 1 μg/mL)
Strain ECL1085 Enterobacter cloacae (SHV-31(2be), TEM-1(2b); CTX-M-15; NDM-1)
  MIC: X (MIC of less than 1 μg/mL)
Strain ECL1086 Enterobacter cloacae (VIM-31, OXA-48(c))
  MIC: X (MIC of less than 1 μg/mL)
Strain ECL1087 Enterobacter cloacae (VIM-1)
  MIC: X (MIC of less than 1 μg/mL)
Strain ECL1088 Enterobacter cloacae (TEM-1(2b); CTX-M-14; ACT-type; VIM-1)
  MIC: X (MIC of less than 1 μg/mL)
Strain ECL1089 Enterobacter cloacae (ACT-type; IMP-1)
  MIC: Y (MIC of 1 μg/mL to 10 μg/mL)
Strain ECL1090 Enterobacter cloacae (TEM-1(2b); CTX-M-22; ACT-type; IMP-8)
  MIC: X (MIC of less than 1 μg/mL)
Strain ECL1091 Enterobacter cloacae (VIM-1)
  MIC: Y (MIC of 1 μg/mL to 10 μg/mL)
Strain ECL1092 Enterobacter cloacae (TEM-OSBL(2b); ACT-32; VIM-1)
  MIC: X (MIC of less than 1 μg/mL)
Strain ECL1093 Enterobacter cloacae (TEM-OSBL(2b); ACT-32; VIM-1)
  MIC: X (MIC of less than 1 μg/mL)
Strain ECL1094 Enterobacter cloacae (VIM-1)
  MIC: X (MIC of less than 1 μg/mL)
Strain ECL1096 Enterobacter cloacae (CMY-4, VIM-4, OXA-48(c))
  MIC: X (MIC of less than 1 μg/mL)
Strain ECL1097 Enterobacter cloacae (SHV-31(2be), TEM-OSBL(2b); CTX-M-15; ACT-31; NDM-1)
  MIC: X (MIC of less than 1 μg/mL)
Strain ECL1098 Enterobacter cloacae (TEM-OSBL(2b); DHA-1; ACT-16; NDM-1)
  MIC: X (MIC of less than 1 μg/mL)
Strain KP1001 Klebsiella pneumoniae (KPC TEM SHV)
  MIC: Y (MIC of 1 μg/mL to 10 μg/mL)
Strain KP1002 Klebsiella pneumoniae (KPC TEM SHV)
  MIC: X (MIC of less than 1 μg/mL)
Strain KP1003 Klebsiella pneumoniae (KPC TEM SHV)
  MIC: X (MIC of less than 1 μg/mL)
Strain KP1004 Klebsiella pneumoniae (KPC-2, TEM-1, SHV-11)
  MIC: X (MIC of less than 1 μg/mL)
Strain KP1008 Klebsiella pneumoniae (KPC-2)
  MIC: X (MIC of less than 1 μg/mL)
Strain KP1014 Klebsiella pneumoniae (VIM-1, TEM, SHV)
  MIC: Y (MIC of 1 μg/mL to 10 μg/mL)
Strain KP1054 Klebsiella pneumoniae (VIM-1, SHV-11)
  MIC: X (MIC of less than 1 μg/mL)
Strain KP1059 Klebsiella pneumoniae (VIM-1, SHV-11)
  MIC: Y (MIC of 1 μg/mL to 10 μg/mL)
Strain KP1061 Klebsiella pneumoniae (KPC-3, SHV-11, TEM-1)
  MIC: X (MIC of less than 1 μg/mL)
Strain KP1064 Klebsiella pneumoniae (KPC-2, SHV-11, TEM-1)
  MIC: Y (MIC of 1 μg/mL to 10 μg/mL)
Strain KP1065 Klebsiella pneumoniae (VIM-1, SHV-11)
  MIC: X (MIC of less than 1 μg/mL)
Strain KP1070 Klebsiella pneumoniae (KPC-2, SHV-11, TEM-1)
  MIC: X (MIC of less than 1 μg/mL)
Strain KP1074 Klebsiella pneumoniae (KPC-3, SHV-11, TEM)
  MIC: Y (MIC of 1 μg/mL to 10 μg/mL)
Strain KP1081 Klebsiella pneumoniae (NDM-1, TEM-1, SHV-11, CMY-6, CTX-M-15)
  MIC: X (MIC of less than 1 μg/mL)
Strain KP1082 Klebsiella pneumoniae (KPC-2, SHV-1)
  MIC: X (MIC of less than 1 μg/mL)
Strain KP1083 Klebsiella pneumoniae (KPC-3, SHV-1, TEM-1)
  MIC: X (MIC of less than 1 μg/mL)
Strain KP1084 Klebsiella pneumoniae (KPC-3, SHV-11, TEM-1)
  MIC: Y (MIC of 1 μg/mL to 10 μg/mL)
Strain KP1086 Klebsiella pneumoniae (OXA-48, CTX-M-15, TEM, SHV)
  MIC: Y (MIC of 1 μg/mL to 10 μg/mL)
Strain KP1087 Klebsiella pneumoniae (KPC-2, CTX-M-15, SHV-11, TEM-1)
  MIC: Y (MIC of 1 μg/mL to 10 μg/mL)
Strain KP1088 Klebsiella pneumoniae (KPC-3, SHV-11, TEM-1)
  MIC: X (MIC of less than 1 μg/mL)
Strain KP1089 Klebsiella pneumonias (OXA-181, CTX-M-15, TEM, SHV)
  MIC: X (MIC of less than 1 μg/mL)
Strain KP1095 Klebsiella pneumoniae (KPC-2 TEM-1 SHV-1)
  MIC: X (MIC of less than 1 μg/mL)
Strain KP1096 Klebsiella pneumoniae (KPC-2 TEM-181 SHV-11)
  MIC: X (MIC of less than 1 μg/mL)
Strain KP1097 Klebsiella pneumonias (IMP-1)
  MIC: X (MIC of less than 1 μg/mL)
Strain KP1098 Klebsiella pneumoniae (IMP-26)
  MIC: Y (MIC of 1 μg/mL to 10 μg/mL)
Strain KP1104 Klebsiella pneumoniae (KPC TEM)
  MIC: X (MIC of less than 1 μg/mL)
Strain KP1105 Klebsiella pneumoniae (KPC TEM SHV)
  MIC: X (MIC of less than 1 μg/mL)
Strain KP1159 Klebsiella pneumoniae (SHV-1(2b); CTX-M-15; IMP-4)
  MIC: X (MIC of less than 1 μg/mL)
Strain KP1160 Klebsiella pneumoniae (SHV-28(2be); CTX-M-15; IMP-26)
  MIC: X (MIC of less than 1 μg/mL)
Strain KP1161 Klebsiella pneumoniae (NDM-1)
  MIC: X (MIC of less than 1 μg/mL)
Strain KP1164 Klebsiella pneumoniae (SHV-12(2be); VIM-1)
  MIC: X (MIC of less than 1 μg/mL)
Strain KP1165 Klebsiella pneumoniae (SHV-11(2b); CTX-M-15; VIM-27)
  MIC: Z (MIC of greater than 10 μg/mL)
Strain KP1166 Klebsiella pneumoniae (SHV-5(2be); VIM-26)
  MIC: Y (MIC of 1 μg/mL to 10 μg/mL)
Strain KP1167 Klebsiella pneumoniae (SHV-12(2be); VIM-1)
  MIC: X (MIC of less than 1 μg/mL)
Strain KP1169 Klebsiella pneumoniae (SHV-11(2b); VIM-1)
  MIC: X (MIC of less than 1 μg/mL)
Strain KP1170 Klebsiella pneumoniae (SHV-11(2b); CTX-M-15; NDM-1)
  MIC: X (MIC of less than 1 μg/mL)
Strain KP1172 Klebsiella pneumoniae (SHV-31(2be); DHA-1; VIM-1)
  MIC: X (MIC of less than 1 μg/mL)
Strain KP1173 Klebsiella pneumoniae (TEM-33(2br); CTX-M-15; IMP-1)
  MIC: X (MIC of less than 1 μg/mL)
Strain KP1174 Klebsiella pneumoniae (CTX-M-14; IMP-1)
  MIC: X (MIC of less than 1 μg/mL)
Strain KP1175 Klebsiella pneumoniae (SHV-OSBL(2b); VIM-1)
  MIC: X (MIC of less than 1 μg/mL)
Strain KP1177 Klebsiella pneumoniae (SHV-OSBL(2b), TEM-OSBL(2b); CTX-M-15; NDM-1)
  MIC: X (MIC of less than 1 μg/mL)
Strain KP1178 Klebsiella pneumoniae (SHV-OSBL(2b;) TEM-OSBL(2b); CTX-M-15; NDM-1)
  MIC: X (MIC of less than 1 μg/mL)
Strain KP1179 Klebsiella pneumoniae (SHV-12(2be), TEM-OSBL(2b); CTX-M-15; NDM-7)
  MIC: X (MIC of less than 1 μg/mL)
Strain KP1180 Klebsiella pneumoniae (SHV-OSBL(2b), TEM-OSBL(2b); CTX-M-15; DHA-1; IMP-26)
  MIC: X (MIC of less than 1 μg/mL)
Strain KP1181 Klebsiella pneumoniae (SHV-OSBL(2b); CTX-M-15; IMP-26)
  MIC: X (MIC of less than 1 μg/mL)
Strain KP1183 Klebsiella pneumoniae (SHV-OSBL(2b), TEM-OSBL(2b); CTX-M-15; NDM-1)
  MIC: X (MIC of less than 1 μg/mL)
Strain KP1184 Klebsiella pneumoniae (SHV-OSBL(2b); IMP-1)
  MIC: X (MIC of less than 1 μg/mL)
Strain KP1185 Klebsiella pneumoniae (SHV-OSBL(2b), TEM-OSBL(2b); IMP-4)
  MIC: X (MIC of less than 1 μg/mL)
Strain KP1186 Klebsiella pneumoniae (CTX-M-15; NDM-1)
  MIC: X (MIC of less than 1 μg/mL)
Strain KP1187 Klebsiella pneumoniae (SHV-55(2be), TEM-OSBL(2b); CTX-M-15; NDM-1)
  MIC: X (MIC of less than 1 μg/mL)
Strain KP1188 Klebsiella pneumoniae (SHV-OSBL(2b); CTX-M-15; NDM-1)
  MIC: Y (MIC of 1 μg/mL to 10 μg/mL)
Strain KP1189 Klebsiella pneumoniae (TEM-OSBL(2b); CTX-M-15; CTX-M-27; NDM-1)
  MIC: X (MIC of less than 1 μg/mL)
Strain KPM1123 Klebsiella pneumoniae (KPC-2 TEM SHV)
  MIC: X (MIC of less than 1 μg/mL)
Strain KPM1202 Klebsiella pneumoniae (KPC SHV TEM)
  MIC: X (MIC of less than 1 μg/mL)
Strain KPM1203 Klebsiella pneumoniae (KPC SHV TEM)
  MIC: X (MIC of less than 1 μg/mL)
Strain KPM1344 Klebsiella pneumoniae (VIM-1)
  MIC: X (MIC of less than 1 μg/mL)
Strain KPM1345 Klebsiella pneumoniae (VIM-1 SHV)
  MIC: X (MIC of less than 1 μg/mL)
Strain KPM1347 Klebsiella pneumoniae (NDM-1 SHV CTX-M-15)
  MIC: X (MIC of less than 1 μg/mL)
Strain KX1017 Klebsiella oxytoca (KPC-2, OXA-2, SHV-30)
  MIC: X (MIC of less than 1 μg/mL)
Strain KX1018 Klebsiella oxytoca (KPC-2, SHV-40, OXY-1)
  MIC: X (MIC of less than 1 μg/mL)
Strain KX1019 Klebsiella oxytoca (KPC-2, OXA-2)
  MIC: X (MIC of less than 1 μg/mL)
Strain PM1024 Proteus mirabilis (TEM-1(2b); CMY-16; VIM-1)
  MIC: X (MIC of less than 1 μg/mL)
Strain PM1026 Proteus mirabilis (DHA-1; IMP-26)
  MIC: Y (MIC of 1 μg/mL to 10 μg/mL)
Strain PM1027 Proteus mirabilis (VIM-5)
  MIC: X (MIC of less than 1 μg/mL)
Strain SM1023 Serratia marcescens (VIM-4)
  MIC: Y (MIC of 1 μg/mL to 10 μg/mL)
